Measured values as given in patent US11440880B2, “Thalidomide analogs and methods of use” (The USA, as represented by the Secretary, Department of …, priority 2015, dated 2022).

What was measured:
Assay type in all cases: cell-based, mouse
Design in all cases: key: NS=not significant; a “+” sign=anti-inflammatory or increased cell numbers; a “−” sign=cell toxicity or pro-inflammatory
TNF-α protein = TNF-α protein level (ELISA) in LPS-challenged RAW 264.7 cells; conditions: LPS 30 or 60 ng/mL, 24 h
Experimental: (§1) Nitrite levels in the culture media were measured by use of the Griess Reagent System (Promega, Madison, Wis.), following the manufacturer's protocol. The O.D. of unknown samples was read at 520 nm λ, compared to a sodium nitrite standard curve (1.5 μM to 100 μM) and nitrite measured media concentrations expressed as μM units. As the lowest nitrite concentration on the Griess Reagent System standard curve was 1.5 μM, this was chosen as the effective cutoff for defining measurable nitrite concentrations. TNF-α protein levels were measured by use of an ELISA specific for mouse TNF-α protein (BioLegend, San Diego, Calif.) and are expressed as a % change from their appropriate control or as pg/ml.
(§2) RAW 264.7 cells obtained from ATCC (Manassas, Va., USA) were grown in DMEM media supplemented with 10% FCS, penicillin 100 μg/ml and streptomycin 100 μg/ml, and maintained at 37° C. and 5% CO2. Cells were seeded in 24 well plates and, 24 hours later, were utilized in studies. One hour prior to the initiation of any study, the seeding media was replaced with fresh media (1 mL), and the cells were allowed to equilibrate at 37° C. and 5% CO2.
(§3) RAW 264.7 cells were challenged with LPS (Sigma, St Louis, Mo.: serotype 055:B5) from at a final concentration of 30 or 60 ng/mL. This concentration of LPS in RAW 264.7 cells induces a sub-maximal rise in both TNF-alpha and nitrite levels without a loss in cellular viability. This sub-maximal rise is useful for assessing whether the addition of an experimental drug can either lower or further raise levels of TNF-α and nitrite. Twenty four hours following the addition of LPS, conditioned media was harvested and analyzed for quantification of secreted TNF-α protein and nitrite levels. Fresh media was replaced into the wells and cell viability was then assessed.
(§4) Thalidomide and analogs were prepared in tissue culture grade DMSO (Sigma). RAW 264.7 cells were pretreated with thalidomide, analogues or vehicle one hour prior to a challenge with LPS. The effects of various concentrations of thalidomide analogues were assessed. All compounds were synthesized to a chemical purity of >99.5%, as assessed by chemical characterization by a combination of 1H NMR, 13C NMR and GC/MS analyses (Bruker AC-300 spectrometer, together with elemental analyses (Atlantic Microlab, Inc., Norcross, Ga.).

RAW 264.7 cells = assay: Cell viability (CellTiter 96 AQueous One) of LPS-challenged RAW 264.7 cells
Experimental: The CellTiter 96® AQueous One Solution Cell Proliferation Assay (Promega, Madison, Wis.) is routinely used as an assay of cell proliferation, and was used according to the manufacturer's recommendations. Changes in cellular health status are determined by use of indirect measures related to the formation of a colored tetrazolium dye product that can be measured spectrophotometrically at 490 nm λ. […] Optical densities (expressed as O.D.s) were measured after various incubations.
as §2, §3, §4

[1] = test system: nitrite levels in the culture media; assay: Nitrite level (Griess Reagent System) in LPS-challenged RAW 264.7 cells; conditions: LPS 30 or 60 ng/mL, 24 h
Experimental: as §1, §2, §3, §4

Structure (SMILES) | TNF-α (TNF-α protein; 10 μM) | TNF-α (TNF-α protein; 30 μM) | TNF-α (TNF-α protein; 60 μM) | Viability (RAW 264.7 cells; 10 μM) | Viability (RAW 264.7 cells; 30 μM) | Viability (RAW 264.7 cells; 60 μM) | Nitrite ([1]; 10 μM) | Nitrite ([1]; 30 μM) | Nitrite ([1]; 60 μM) | TNF-α (TNF-α protein; 1 μM) | Viability (RAW 264.7 cells; 1 μM) | Nitrite ([1]; 1 μM)
CC1(C)[C@@H]2CC[C@]1(C)[C@@H](N1C(=O)C3C4C=CC(C4)C3C1=O)C2 (some centres unmarked) [Compound 117] | + | + | + | − | − | − | + | + | + |  |  | 
CC1(C)[C@@H]2CC[C@H](CN3C(=O)C4C5C=CC(C5)C4C3=O)[C@H]1C2 (some centres unmarked) [Compound 114] | + | + | + | − | − | − | + | + | + |  |  | 
Nc1cccc2c1CN(CC13CC4CC(CC(C4)C1)C3)C2=O [Compound 79] | NS | NS |  | NS | − |  | NS | + |  | NS | NS | NS
C[C@@H]1[C@@H](N2C=C3C(=CC=C/C3=N\OO)C2=O)C[C@H]2C[C@@H]1C2(C)C [Compound 105] | NS | + |  | NS | − |  | + | + |  | NS | NS | NS
CC1(C)[C@@H]2CC[C@@]1(C)[C@@H](N1C(=O)C3C4C=CC(C4)C3C1=O)C2 (some centres unmarked) [Compound 116] | NS | NS | NS | − | − | NS | NS | NS | NS |  |  | 
CC1(C)[C@@H]2CC[C@]1(C)[C@H](N1Cc3c(N)cccc3C1=O)C2 [Compound 95] | NS | NS |  | + | + |  | NS | + |  | NS | NS | NS
CC1(C)[C@@H]2CC[C@H](CN3C(=O)C4CC=CCC4C3=O)[C@H]1C2 (some centres unmarked) [Compound 112] | NS | + | + | − | − | − | NS | + | + |  |  | 
CC1(C)[C@@H]2CC[C@]1(C)[C@@H](N1C=C3C(=CC=C/C3=N\OO)C1=O)C2 [Compound 98] | + | + |  | NS | NS |  | + | + |  | SIG | NS | +
C[C@H]1[C@H](N2C(=O)C3C4C=CC(C4)C3C2=O)C[C@@H]2C[C@H]1C2(C)C (some centres unmarked) [Compound 120] | + |  |  | − |  |  |  |  |  |  |  | 
CC1(C)[C@@H]2CC[C@H](CN3C(=O)C4C5C=CC(C5)C4C3=O)[C@H]1C2 (some centres unmarked) [Compound 113] | NS | + | + | − | − | − | NS | + | + |  |  | 
O=C1c2cccc([N+](=O)[O-])c2CN1[C@@H]1C[C@H]2CC[C@@H]1C2 [Compound 99] | NS | + |  | − | − |  | + | + |  | NS | NS | +
O=C1c2cccc([N+](=O)[O-])c2CN1CC12CC3CC(CC(C3)C1)C2 [Compound 78] | + | + |  | NS | − |  | NS | + |  | NS | NS | NS
